Experimental data published in patent US9072734B2, “Quaternary ammonium salt compounds” (Teijin Pharma Limited, priority 2009, dated 2015).
Structures can show the parent of a compound that is named as a salt.

Columns and labels:
[1] = target: T1, human M3 muscarinic receptor (Homo sapiens, UniProt P20309); assay: Inhibitory effect on methacholine-induced calcium influx, FLIPR assay, CHO-K1 cells stably expressing the human M3 muscarinic receptor; assay type: cell-based; details: inhibition of calcium influx induced by methacholine
T1 construct: expressed in transfected cells; host or cells: CHO-K1
T1 sequence (P20309 whole entry): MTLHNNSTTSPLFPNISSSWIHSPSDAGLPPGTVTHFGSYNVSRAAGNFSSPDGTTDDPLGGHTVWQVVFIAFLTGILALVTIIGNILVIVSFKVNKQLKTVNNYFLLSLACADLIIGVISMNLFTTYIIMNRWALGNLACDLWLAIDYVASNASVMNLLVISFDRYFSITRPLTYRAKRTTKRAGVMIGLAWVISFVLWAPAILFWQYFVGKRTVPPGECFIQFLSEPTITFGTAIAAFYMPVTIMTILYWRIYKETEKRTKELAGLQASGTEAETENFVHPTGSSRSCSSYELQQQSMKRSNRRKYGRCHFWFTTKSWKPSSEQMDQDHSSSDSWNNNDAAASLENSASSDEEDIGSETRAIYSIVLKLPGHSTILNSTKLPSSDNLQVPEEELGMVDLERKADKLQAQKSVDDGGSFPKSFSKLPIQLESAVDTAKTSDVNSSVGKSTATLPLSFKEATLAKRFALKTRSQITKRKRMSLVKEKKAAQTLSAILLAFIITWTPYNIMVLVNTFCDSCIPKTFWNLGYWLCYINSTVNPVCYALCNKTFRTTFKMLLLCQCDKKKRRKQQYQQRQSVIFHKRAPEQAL
Method in brief: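 Dye-loaded hM3 CHO-K1 cells were preincubated 180 s with compound solutions prepared at 10 two-fold concentrations (0.01–1000 nM). A 30 nM methacholine solution was then added. Fluorescence was traced for 170 s; max−min signal gave % inhibition against agonist and no-agonist controls, and IC50 came from a four-parameter logistic fit.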

[2] = target: T2, human β2 adrenergic receptor (Homo sapiens, UniProt P07550); assay: Whole-cell cAMP Flashplate assay using CHO-K1 cells stably expressing human β2 adrenergic receptor; assay type: cell-based; details: cAMP production
T2 construct: expressed in transfected cells; host or cells: CHO-K1
T2 sequence (P07550 whole entry): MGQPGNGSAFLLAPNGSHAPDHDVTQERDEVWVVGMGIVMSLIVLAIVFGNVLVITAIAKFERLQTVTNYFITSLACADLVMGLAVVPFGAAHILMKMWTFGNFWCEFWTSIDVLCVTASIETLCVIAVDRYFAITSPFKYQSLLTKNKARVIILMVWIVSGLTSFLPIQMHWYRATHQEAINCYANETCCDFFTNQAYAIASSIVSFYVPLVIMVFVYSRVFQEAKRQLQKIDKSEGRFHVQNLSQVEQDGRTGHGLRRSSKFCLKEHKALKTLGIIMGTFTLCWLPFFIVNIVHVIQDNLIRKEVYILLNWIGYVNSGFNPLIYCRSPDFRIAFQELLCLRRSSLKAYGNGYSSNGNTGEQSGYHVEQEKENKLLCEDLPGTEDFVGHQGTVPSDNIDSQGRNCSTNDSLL

| Compound | IC50 [1] [nM] | EC50 [2] [nM] |
| --- | --- | --- |
| C[N+]1(C)CCC(OC(=O)Nc2cc(CCC(=O)Nc3cc(F)c(CNC[C@H](O)c4ccc(O)c5[nH]c(=O)ccc45)cc3F)ccc2-c2ccccc2)CC1 [Example 5, 4-({[5-(2-{[2,5-difluoro-4-({[(2R)-2-hydroxy-2-(8-hydroxy-2-oxo-1,2-dihydroquinolin-5-yl)ethyl]amino}methyl)phenyl]carbamoyl}ethyl)-2-phenylphenyl]carbamoyl}oxy)-1,1-dimethylpiperidin-1-ium trifluoroacetate] | 19.2 | 8.2 |
| C[N+]1(C)[C@@H]2CC(OC(=O)Nc3cc(CCC(=O)Nc4ccc(CCCNC[C@H](O)c5ccc(O)c6[nH]c(=O)ccc56)cc4)ccc3-c3ccccc3)C[C@H]1[C@@H]1O[C@@H]12 (stereo partly drawn) [Example 73, (1R,2R,4S,5S,7S)-7-({[5-(2-{[4-(3-{[(2R)-2-hydroxy-2-(8-hydroxy-2-oxo-1,2-dihydroquinolin-5-yl)ethyl]amino}propyl)phenyl]carbamoyl}ethyl)-2-phenylphenyl]carbamoyl}oxy)-9,9-dimethyl-3-oxa-9-azatricyclo[3.3.1.0^2,4]nonan-9-ium trifluoroacetate] | 27.5 | 10 |
| C[N+]1(C)[C@@H]2CC(OC(=O)Nc3ccc(CCCC(=O)Nc4ccc(CNC[C@H](O)c5ccc(O)c6[nH]c(=O)ccc56)cc4)cc3-c3ccccc3)C[C@H]1[C@@H]1O[C@@H]12 (stereo partly drawn) [Example 53, (1R,2R,4S,5S,7S)-7-({[4-(3-{[4-({[(2R)-2-hydroxy-2-(8-hydroxy-2-oxo-1,2-dihydroquinolin-5-yl)ethyl]amino}methyl)phenyl]carbamoyl}propyl)-2-phenylphenyl]carbamoyl}oxy)-9,9-dimethyl-3-oxa-9-azatricyclo[3.3.1.0^2,4]nonan-9-ium trifluoroacetate] | 53.7 | 0.6 |
| Cc1cc(CNC[C@H](O)c2ccc(O)c3[nH]c(=O)ccc23)ccc1NC(=O)CCc1ccc(-c2ccccc2)c(NC(=O)OC2C[C@@H]3[C@H]4O[C@H]4[C@H](C2)[N+]3(C)C)c1 (stereo partly drawn) [Example 43, (1R,2R,4S,5S,7S)-7-({[5-(2-{[4-({[(2R)-2-hydroxy-2-(8-hydroxy-2-oxo-1,2-dihydroquinolin-5-yl)ethyl]amino}methyl)-2-methylphenyl]carbamoyl}ethyl)-2-phenylphenyl]carbamoyl}oxy)-9,9-dimethyl-3-oxa-9-azatricyclo[3.3.1.0^2,4]nonan-9-ium trifluoroacetate] | 8.5 | 3 |
| C[N+]1(C)CCC(OC(=O)Nc2cc(CCC(=O)Nc3ccc(CNC[C@H](O)c4ccc(O)c5[nH]c(=O)ccc45)c(Cl)c3)ccc2-c2ccccc2)CC1 [Example 3, 4-({[5-(2-{[3-chloro-4-({[(2R)-2-hydroxy-2-(8-hydroxy-2-oxo-1,2-dihydroquinolin-5-yl)ethyl]amino}methyl)phenyl]carbamoyl}ethyl)-2-phenylphenyl]carbamoyl}oxy)-1,1-dimethylpiperidin-1-ium trifluoroacetate] | 16.2 | 9.7 |
| COc1cc(NC(=O)CCc2ccc(-c3ccccc3)c(NC(=O)O[C@@H]3C[C@@H]4[C@H]5O[C@H]5[C@H](C3)[N+]4(C)C)c2)c(Cl)cc1CNC[C@H](O)c1ccc(O)c2[nH]c(=O)ccc12 [Example 46, (1R,2R,4S,5S,7S)-7-({[5-(2-{[2-chloro-4-({[(2R)-2-hydroxy-2-(8-hydroxy-2-oxo-1,2-dihydroquinolin-5-yl)ethyl]amino}methyl)-5-methoxyphenyl]carbamoyl}ethyl)-2-phenylphenyl]carbamoyl}oxy)-9,9-dimethyl-3-oxa-9-azatricyclo[3.3.1.0^2,4]nonan-9-ium trifluoroacetate] | 16.5 | 1.4 |
| CCOc1cc(NC(=O)CCCc2ccc(-c3ccccc3)c(NC(=O)OC3CC[N+](C)(C)CC3)c2)ccc1CNC[C@H](O)c1ccc(O)c2[nH]c(=O)ccc12 [Example 27, 4-({[5-(3-{[5-ethoxy-4-({[(2R)-2-hydroxy-2-(8-hydroxy-2-oxo-1,2-dihydroquinolin-5-yl)ethyl]amino}methyl)phenyl]carbamoyl}propyl)-2-phenylphenyl]carbamoyl}oxy)-1,1-dimethylpiperidin-1-ium trifluoroacetate] | 16.1 | 1.5 |
| C[N+]1(C)CCC(OC(=O)Nc2cc(CCC(=O)Nc3ccc(CNC[C@H](O)c4ccc(O)c5[nH]c(=O)ccc45)c(F)c3)ccc2-c2ccccc2)CC1 [Example 7, 4-({[5-(2-{[3-fluoro-4-({[(2R)-2-hydroxy-2-(8-hydroxy-2-oxo-1,2-dihydroquinolin-5-yl)ethyl]amino}methyl)phenyl]carbamoyl}ethyl)-2-phenylphenyl]carbamoyl}oxy)-1,1-dimethylpiperidin-1-ium trifluoro acetate] | 14.5 | 5.1 |
| Cc1cc(CNC[C@H](O)c2ccc(O)c3[nH]c(=O)ccc23)ccc1NC(=O)CCc1ccc(-c2ccccc2)c(NC(=O)OC2CC[N+](C)(C)CC2)c1 [Example 11, 4-({[5-(2-{[4-({[(2R)-2-hydroxy-2-(8-hydroxy-2-oxo-1,2-dihydroquinolin-5-yl)ethyl]amino}methyl)-2-methylphenyl]carbamoyl}ethyl)-2-phenylphenyl]carbamoyl}oxy)-1,1-dimethylpiperidin-1-ium trifluoroacetate] | 9.7 | 3.7 |
| COc1cc(NC(=O)CCCc2ccc(-c3ccccc3)c(NC(=O)O[C@@H]3C[C@@H]4[C@H]5O[C@H]5[C@H](C3)[N+]4(C)C)c2)c(Cl)cc1CNC[C@H](O)c1ccc(O)c2[nH]c(=O)ccc12 [Example 34, (1R,2R,4S,5S,7S)-7-({[5-(3-{[2-chloro-4-({[(2R)-2-hydroxy-2-(8-hydroxy-2-oxo-1,2-dihydroquinolin-5-yl)ethyl]amino}methyl)-5-methoxyphenyl]carbamoyl}propyl)-2-phenylphenyl]carbamoyl}oxy)-9,9-dimethyl-3-oxa-9-azatricyclo[3.3.1.0^2,4]nonan-9-ium trifluoroacetate] | 22 | 1.2 |

More lines, now with the values ahead:

| IC50 [1] [nM] | EC50 [2] [nM] | Compound |
| --- | --- | --- |
| 16.8 | 3.8 | COc1cc(CNC[C@H](O)c2ccc(O)c3[nH]c(=O)ccc23)ccc1NC(=O)CCCc1ccc(-c2ccccc2)c(NC(=O)OC2CC[N+](C)(C)CC2)c1 [Example 21, 4-({[5-(3-{[4-({[(2R)-2-hydroxy-2-(8-hydroxy-2-oxo-1,2-dihydroquinolin-5-yl)ethyl]amino}methyl)-2-methoxyphenyl]carbamoyl}propyl)-2-phenylphenyl]carbamoyl}oxy)-1,1-dimethylpiperidin-1-ium trifluoroacetate] |
| 10 | 0.7 | C[N+]1(C)CCC(OC(=O)Nc2cc(CCCC(=O)Nc3ccc(CNC[C@H](O)c4ccc(O)c5[nH]c(=O)ccc45)cc3F)ccc2-c2ccccc2)CC1 [Example 28, 4-({[5-(3-{[2-fluoro-4-({[(2R)-2-hydroxy-2-(8-hydroxy-2-oxo-1,2-dihydroquinolin-5-yl)ethyl]amino}methyl)phenyl]carbamoyl}propyl)-2-phenylphenyl]carbamoyl}oxy)-1,1-dimethylpiperidin-1-ium trifluoroacetate] |
| 15.8 | 2.2 | Cc1cc(CNC[C@H](O)c2ccc(O)c3[nH]c(=O)ccc23)ccc1NC(=O)CCCc1ccc(-c2ccccc2)c(NC(=O)OC2CC[N+](C)(C)CC2)c1 [Example 22, 4-({[5-(3-{[4-({[(2R)-2-hydroxy-2-(8-hydroxy-2-oxo-1,2-dihydroquinolin-5-yl)ethyl]amino}methyl)-2-methylphenyl]carbamoyl}propyl)-2-phenylphenyl]carbamoyl}oxy)-1,1-dimethylpiperidin-1-ium trifluoroacetate] |
| 37.8 | 8.7 | C[N+]1(C)CCC(OC(=O)Nc2cc(CCCCOc3ccc(CNC[C@H](O)c4ccc(O)c5[nH]c(=O)ccc45)cc3)ccc2-c2ccccc2)CC1 [Example 61, 4-{[(5-{4-[4-({[(2R)-2-hydroxy-2-(8-hydroxy-2-oxo-1,2-dihydroquinolin-5-yl)ethyl]amino}methyl)phenoxy]butyl}-2-phenylphenyl)carbamoyl]oxy}-1,1-dimethylpiperidin-1-ium trifluoroacetate] |
| 11.4 | 5.9 | C[N+]1(C)CCC(OC(=O)Nc2cc(CCC(=O)Nc3ccc(CNC[C@H](O)c4ccc(O)c5[nH]c(=O)ccc45)cn3)ccc2-c2ccccc2)CC1 [Example 17, 4-({[5-(2-{[5-({[(2R)-2-hydroxy-2-(8-hydroxy-2-oxo-1,2-dihydroquinolin-5-yl)ethyl]amino}methyl)pyridin-2-yl]carbamoyl}ethyl)-2-phenylphenyl]carbamoyl}oxy)-1,1-dimethylpiperidin-1-ium trifluoroacetate] |
| 29.9 | 2.4 | C[N+]1(C)CCC(OC(=O)Nc2cc(CCNC(=O)c3ccc(CNC[C@H](O)c4ccc(O)c5[nH]c(=O)ccc45)cc3)ccc2-c2ccccc2)CC1 [Example 80, 4-({[5-(2-{[4-({[(2R)-2-hydroxy-2-(8-hydroxy-2-oxo-1,2-dihydroquinolin-5-yl)ethyl]amino}methyl)phenyl]formamide}ethyl)-2-phenylphenyl]carbamoyl}oxy)-1,1-dimethylpiperidin-1-ium trifluoro acetate] |
